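How tested: cells in 96-well plates exposed to compound for 48 hours at five concentrations. Here, GI50 denotes the concentration required for 50% inhibition of growth. TGI marks complete inhibition of growth.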
Columns and labels:
Test in all cases: NCI anticancer screen, dose series, 48 h
[1] = system: A549 NSCLC
[2] = system: COLO 205 colon
[3] = system: HCT-116 colon
[4] = system: HS 578T breast
[5] = system: OVCAR-8 ovarian
[6] = system: RXF 393 renal
[7] = system: SK-MEL-28 melanoma
[8] = system: SK-OV-3 ovarian
[9] = system: SNB-19 CNS
[10] = system: UACC-62 melanoma

Compound | TGI [1] [µM] | TGI [2] [µM] | TGI [3] [µM] | TGI [4] [µM] | TGI [5] [µM] | TGI [6] [µM] | TGI [7] [µM] | TGI [8] [µM] | TGI [9] [µM] | TGI [10] [µM] | GI50 [1] [µM] | GI50 [2] [µM] | GI50 [3] [µM] | GI50 [4] [µM] | GI50 [5] [µM] | GI50 [6] [µM] | GI50 [7] [µM] | GI50 [8] [µM] | GI50 [9] [µM] | GI50 [10] [µM]
C[C@]12CC[C@H]3[C@@H](CCC4=C[C@@H](OC5OCC(OC6OC(CO)C(O)C(O)C6O)C(O)C5O)CC[C@@]43C=O)[C@@]1(O)CCC2C1=CC(=O)OC1 (stereo partly specified) | 0.484 | 3.25 | 1.25 | > 100 | 2.76 | 1.2 | 9.62 | 3.75 | 11.9 | 4.29 |  |  |  |  |  |  |  |  |  | 
O=C(Nc1ccccc1C(=O)Nc1nccs1)c1ccccc1 | > 100 | > 100 | > 100 | > 100 | > 100 |  | > 100 | > 100 | > 100 | > 100 |  |  |  |  |  |  |  |  |  | 
C=Cc1cnc([N+](=O)[O-])n1C | > 100 | > 100 | > 100 | 99.9 | > 100 |  | > 100 | > 100 | > 100 |  |  |  |  |  |  |  |  |  |  | 
COc1cc(CNC(=O)CCSc2nc3ccccc3c(=O)n2Cc2cc(OC)c(OC)c(OC)c2)cc(OC)c1OC | > 100 | 23.2 | 13.3 | > 100 | 50.7 | 26 | > 100 | 18.6 | > 100 | 20.6 | 6.33 | 5.32 | 3.76 | 5.24 | 10 | 5.31 | 6.69 | 5.34 | 6 | 2.92
Cc1[nH]n(-c2ccccc2)c(=O)c1C(=O)c1ccccc1 | > 25 | > 25 | > 25 | > 25 | > 25 | > 25 | > 25 | > 25 | > 25 | > 25 | 11.7 | > 25 | > 25 | > 25 | > 25 | > 25 | > 25 | > 25 | > 15.7 | > 25
C=C(C)[C@@H]1CC[C@]2(C)[C@H](CC=C3[C@@H]4[C@H](C)[C@@H](C)CC[C@]4(CO)CC[C@]32C)[C@@]1(C)CCCN | 5.11 | 1.94 | 1.54 | 2.23 | 2.8 | 1.59 | 1.67 | 12 | 8.11 | 12.6 | 1.59 | 0.899 | 0.807 | 0.994 | 1.16 | 0.826 | 0.952 | 4.42 | 2.11 | 5.82
N#Cc1c(NCc2ccccc2)nc(NCc2ccccc2)c(C#N)c1-c1cccc(O)c1 | 63.5 | > 100 | 16.1 | 20.7 | 52.2 | 34.9 | > 100 | 46.5 | > 100 | 7.04 | 13.3 | 36.7 | 4.48 | 3.76 | 19.2 | 13.8 | 61 | 7.79 | 17.1 | 2.1
COc1cc(/C=C/c2cc(/C=C/c3ccc(O)c(OC)c3)[nH]c(=O)n2)ccc1O | 27.6 | 4.03 | 12.4 | 6.75 | 12.7 | 4.93 | 13.1 | 4.89 | > 100 | 43.2 | 5.2 | 2.03 | 2.48 | 1.8 | 3.01 | 2.24 | 3.05 | 2.33 | 3.38 | 3.39
N#CC1CCc2c(c(-c3cn[nH]c3C(F)(F)F)nc3c(F)cc4[nH]ncc4c23)C1 (stereo unspecified) | > 100 | 16.1 | 19.6 | 11.5 | > 100 | 7.3 | 30.4 | 10.5 | 61.5 | 11.5 | 21.2 | 4.23 | 3.15 | 3.16 | 13.7 | 2.39 | 4.43 | 3.21 | 5.53 | 3.43
CC(=O)NS(=O)(=O)c1ccc(-n2nc(-c3ccccc3)cc2C2=CC(=O)C=CC2=O)cc1 | > 100 | > 100 | > 100 | > 100 | > 100 | > 100 | > 100 |  | > 100 | > 100 | > 100 | > 100 | 33.5 | 22.3 | > 100 | > 100 | > 100 |  | > 100 | > 100
CC(C)(O)CCC(O)C(C)(O)C1CCC2(O)C3=CC(=O)C4(O)CC(O)C(O)CC4(C)C3CCC12C (stereo unspecified) (tested in a mixture with another compound) | > 100 | > 100 | > 100 | > 100 | > 100 | > 100 | > 100 | > 100 | > 100 | > 100 |  |  |  |  |  |  |  |  |  | 
COc1ccc(/C=C/c2cnc3ccccc3n2)cc1OC | > 100 | > 100 | > 100 | > 100 | > 100 | > 100 | > 100 | > 100 |  | > 100 |  |  |  |  |  |  |  |  |  | 
Cc1cc(S(=O)(=O)Nc2nc3cc(-c4ccsc4)sc3c(=O)n2N)c(S)cc1Cl | > 100 | > 100 | > 100 | > 100 | > 100 | > 100 |  | > 100 | > 100 | 72.2 | 47.4 | > 100 | 47.4 | 35.7 | 68.1 | > 100 |  | 88.6 | 86 | 24.8
Cc1cc(O)c2c(c1)C(=O)C(c1c(C)cc3c(c1O)C(=O)C1OC1C3=O)=CC2=O (stereo unspecified) | 43.1 |  | 3.21 | 98.9 | 18.2 | 3.11 | 5.53 | 38.7 | > 50.7 | 4.77 |  |  |  |  |  |  |  |  |  | 

Source: PubChem BioAssay (NCI)
